Read-outs that look alike come from different tables or passages of the source.
How the values were obtained:
[1] = system: jejunal mucosal 5-HT in mice (C57 BL6); experiment: Intestinal 5-HT depletion assay (Example B, single 150 mg/kg oral dose); assay type: in vivo, mouse; settings: one day after oral administration of a single 150 mg/kg dose, P-value class (ANOVA)
Procedure: The efficacy of the TPH1 inhibitors of the invention was assessed for the ability to decrease intestinal serotonin concentration in mice. Mice (C57 BL6) were administered a single 150 mg/kg dose of test article by oral gavage. Each animal was euthanized by exsanguination under isoflurane anesthesia. Jejunal intestinal mucosa was isolated and homogenized in 300 μL of a buffer containing 0.3M trichloroacetic acid, 0.1M sodium acetate, 10 mM EDTA, 20 mM sodium bisulfate and 50 mM ascorbic acid. Following centrifugation the 5-HT levels in the supernatants were measured by HPLC. The remaining mucosal pellet was solubilized overnight at 37° C. in a 0.1% sodium dodecyl sulfate buffer in 0.1N NaOH followed by determination of protein concentrations using a BCA protein assay (Pierce, Rockford, Ill. 5-HT levels were normalized to protein and data were expressed as mean percent reduction of mucosal 5-HT levels relative to vehicle control SEM (percent 5-HT reduction). All animal studies were carried out with protocols approved by the Institutional Animal Care and Use Committee.
P-values, indicating statistical significance of the data (ANOVA) are provided in the table: * refers to P<0.05, ** refers to P<0.01, *** refers to P<0.005, and refers to P<0.0005.

[2] = target: T1, Recombinant human TPH1 (MBP tagged) (Homo sapiens, UniProt P17752); experiment: TPH1 in vitro inhibition assay (kinetic fluorescence); assay type: biochemical
T1 construct: cloning full length human TPH1 cDNA in to a bacterial pMAL-c5E expression vector; made in house; host or cells: E. coli BL21 (DE3)
T1 sequence (P17752 1-444): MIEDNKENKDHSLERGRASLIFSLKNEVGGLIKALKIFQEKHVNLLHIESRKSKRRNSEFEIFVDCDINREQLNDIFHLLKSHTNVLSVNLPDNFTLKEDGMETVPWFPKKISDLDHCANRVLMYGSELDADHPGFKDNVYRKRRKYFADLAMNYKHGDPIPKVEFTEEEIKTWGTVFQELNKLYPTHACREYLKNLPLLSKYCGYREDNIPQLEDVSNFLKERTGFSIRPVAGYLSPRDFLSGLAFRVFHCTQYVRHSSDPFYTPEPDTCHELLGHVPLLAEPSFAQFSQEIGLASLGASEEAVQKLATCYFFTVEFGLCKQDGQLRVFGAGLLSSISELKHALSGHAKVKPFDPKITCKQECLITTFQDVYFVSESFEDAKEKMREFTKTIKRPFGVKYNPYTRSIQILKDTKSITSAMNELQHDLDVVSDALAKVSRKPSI
Procedure, shortened: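 Final mix: 15 nM MBP-TPH1, 30 μM Trp, 36 μM 6-methyltetrahydropterin, 25 μM ferrous ammonium sulfate, 50 mM MES pH 7.1, 1% DMSO, room temperature.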

[3] = read-out: TPH1 Range (TPH1 inhibition IC50)
[4] = TPH1 Range (TPH1 inhibition IC50)

| Compound | IC50 [2, 3] [nM] | Efficacy (statistical significance of reduction of mucosal 5-HT concentrations relative to vehicle) [1] | IC50 [2, 4] [nM] |
| --- | --- | --- | --- |
| CCCCc1ccc(-n2ccc(C)n2)c([C@@H](Oc2cc(N3CCC4(CC3)CN[C@H](C(=O)O)C4)nc(N)n2)C(F)(F)F)c1 [Example 22c, (S)-8-(2-amino-6-((R)-1-(5-butyl-2-(3-methyl-1H-pyrazol-1-yl)phenyl)-2,2,2-trifluoroethoxy)pyrimidin-4-yl)-2,8-diazaspiro[4.5]decane-3-carboxylic acid] | < 50 | * (* refers to P<0.05) |  |
| COc1ccc([C@@H](Oc2cc(N3CCC4(CC3)CNC(C(=O)O)C4)nc(N)n2)C(F)(F)F)c(-n2ccc(C)n2)c1 (stereo partly drawn) [Example 10j, 8-(2-amino-6-((R)-2,2,2-trifluoro-1-(4-methoxy-2-(3-methyl-1H-pyrazol-1-yl)phenyl)ethoxy)pyrimidin-4-yl)-2,8-diazaspiro[4.5]decane-3-carboxylic acid] | 50 to 300 | **** (and refers to P<0.0005) |  |
| Cc1ccn(-c2cc(-c3ccncc3)ccc2[C@@H](Oc2cc(N3CCC4(CC3)CN[C@H](C(=O)O)C4)nc(N)n2)C(F)(F)F)n1 [Example 1g, (S)-8-(2-amino-6-((R)-2,2,2-trifluoro-1-(2-(3-methyl-1H-pyrazol-1-yl)-4-(pyridin-4-yl)phenyl)ethoxy)pyrimidin-4-yl)-2,8-diazaspiro[4.5]decane-3-carboxylic acid] | < 50 | *** (*** refers to P<0.005) |  |
| Cc1ccn(-c2cc(-c3cnn(C)c3)ccc2[C@@H](Oc2cc(N3CCC4(CC3)CN[C@H](C(=O)O)C4)nc(N)n2)C(F)(F)F)n1 [Example 1h, (S)-8-(2-amino-6-((R)-2,2,2-trifluoro-1-(2-(3-methyl-1H-pyrazol-1-yl)-4-(1-methyl-1H-pyrazol-4-yl)phenyl)ethoxy)pyrimidin-4-yl)-2,8-diazaspiro[4.5]decane-3-carboxylic acid] | < 50 | ** (** refers to P<0.01) |  |
| CS(=O)(=O)c1cccc(-c2cc(Cl)ccc2[C@@H](Oc2cc(N3CCC4(CC3)CN[C@H](C(=O)O)C4)nc(N)n2)C(F)(F)F)c1 [Example 34w, (S)-8-(2-amino-6-((R)-1-(5-chloro-3′-(methylsulfonyl)-[1,1′-biphenyl]-2-yl)-2,2,2-trifluoroethoxy)pyrimidin-4-yl)-2,8-diazaspiro[4.5]decane-3-carboxylic acid] |  | *** (*** refers to P<0.005) | < 50 |
| Cc1ccn(-c2ccc(Cl)cc2[C@@H](Oc2cc(N3CCC4(CC3)CNC(C(=O)O)C4)nc(N)n2)C(F)(F)F)n1 (stereo partly drawn) [Example 10k, 8-(2-amino-6-((R)-1-(5-chloro-2-(3-methyl-1H-pyrazol-1-yl)phenyl)-2,2,2-trifluoroethoxy)pyrimidin-4-yl)-2,8-diazaspiro[4.5]decane-3-carboxylic acid] | 50 to 300 | * (* refers to P<0.05) |  |
| CCCc1ccc([C@@H](Oc2cc(N3CCC4(CC3)CN[C@H](C(=O)O)C4)nc(N)n2)C(F)(F)F)c(-n2ccc(C)n2)c1 [Example 12b, (S)-8-(2-amino-6-((R)-2,2,2-trifluoro-1-(2-(3-methyl-1H-pyrazol-1-yl)-4-propylphenyl)ethoxy)pyrimidin-4-yl)-2,8-diazaspiro[4.5]decane-3-carboxylic acid] | < 50 | * (* refers to P<0.05) |  |
| (3S)-8-(2-amino-6-(2,2,2-trifluoro-1-(3′-fluoro- [1,1′-biphenyl]-4-yl)ethoxy)pyrimidin-4-yl)-2,8- diazaspiro[4.5]decane-3-carboxylic acid [Example 55ak] | 300 to 3000 | ** (** refers to P<0.01) |  |
| Nc1nc(O[C@H](c2ccc(Cl)cc2-c2cccc(S(N)(=O)=O)c2)C(F)(F)F)cc(N2CCC3(CC2)CN[C@H](C(=O)O)C3)n1 [Example 34u, (S)-8-(2-amino-6-((R)-1-(5-chloro-3′-sulfamoyl-[1,1′-biphenyl]-2-yl)-2,2,2-trifluoroethoxy)pyrimidin-4-yl)-2,8-diazaspiro[4.5]decane-3-carboxylic acid] |  | * (* refers to P<0.05) | < 50 |
| CC(=O)NCCc1ccc(-c2ccc([C@@H](Oc3cc(N4CCC5(CC4)CN[C@H](C(=O)O)C5)nc(N)n3)C(F)(F)F)c(-n3ccc(C)n3)c2)cc1 [Example 1y, (S)-8-(6-((R)-1-(4′-(2-acetamidoethyl)-3-(3-methyl-1H-pyrazol-1-yl)-[1,1′-biphenyl]-4-yl)-2,2,2-trifluoroethoxy)-2-aminopyrimidin-4-yl)-2,8-diazaspiro[4.5]decane-3-carboxylic acid] | < 50 | ** (** refers to P<0.01) |  |
| Cc1ccn(-c2cc(C(=O)O)ccc2[C@@H](Oc2cc(N3CCC4(CC3)CN[C@H](C(=O)O)C4)nc(N)n2)C(F)(F)F)n1 [Example 16, (S)-8-(2-amino-6-((R)-1-(4-carboxy-2-(3-methyl-H-pyrazol-1-yl)phenyl)-2,2,2-trifluoroethoxy)pyrimidin-4-yl)-2,8-diazaspiro[4.5]decane-3-carboxylic acid] | 300 to 3000 | ** (** refers to P<0.01) |  |

Second part, led by results:

| IC50 [2, 3] [nM] | Compound | Efficacy (statistical significance of reduction of mucosal 5-HT concentrations relative to vehicle) [1] | IC50 [2, 4] [nM] |
| --- | --- | --- | --- |
| 50 to 300 | Nc1nc(O[C@H](c2ccc(-c3cccc(F)c3)cc2)C(F)(F)F)cc(N2CCC3(CC2)CN[C@H](C(=O)O)C3)n1 [Example 55am, (S)-8-(2-amino-6-((R)-2,2,2-trifluoro-1-(3′-fluoro-[1,1′-biphenyl]-4-yl)ethoxy)pyrimidin-4-yl)-2,8-diazaspiro[4.5]decane-3-carboxylic acid] | *** (*** refers to P<0.005) |  |
| 50 to 300 | Nc1nc(O[C@H](c2ccc(-c3ccc4ncsc4c3)cc2)C(F)(F)F)cc(N2CCC3(CC2)CN[C@H](C(=O)O)C3)n1 [Example 55k, (S)-8-(2-amino-6-((R)-1-(4-(benzo[d]thiazol-6-yl)phenyl)-2,2,2-trifluoroethoxy)pyrimidin-4-yl)-2,8-diazaspiro[4.5]decane-3-carboxylic acid] | * (* refers to P<0.05) |  |
| < 50 | Nc1nc(O[C@H](c2ccc(Cl)cc2-c2cccc(O)c2)C(F)(F)F)cc(N2CCC3(CC2)CN[C@H](C(=O)O)C3)n1 [Example 34v, (S)-8-(2-amino-6-((R)-1-(5-chloro-3′-hydroxy-[1,1′-biphenyl]-2-yl)-2,2,2-trifluoroethoxy)pyrimidin-4-yl)-2,8-diazaspiro[4.5]decane-3-carboxylic acid] | * (* refers to P<0.05) |  |
| 50 to 300 | COc1cccc(-c2ccc(C(Oc3cc(N4CCC5(CC4)CN[C@H](C(=O)O)C5)nc(N)n3)C(F)(F)F)cc2)c1 (stereo partly drawn) [Example 55al, (3S)-8-(2-amino-6-(2,2,2-trifluoro-1-(3′-methoxy-[1,1′-biphenyl]-4-yl)ethoxy)pyrimidin-4-yl)-2,8-diazaspiro[4.5]decane-3-carboxylic acid] | * (* refers to P<0.05) |  |
| 50 to 300 | COc1cccc(-c2ccc([C@@H](Oc3cc(N4CCC5(CC4)CN[C@H](C(=O)O)C5)nc(N)n3)C(F)(F)F)cc2)c1 [Example 55an, (S)-8-(2-amino-6-((R)-2,2,2-trifluoro-1-(3′-methoxy-[1,1′-biphenyl]-4-yl)ethoxy)pyrimidin-4-yl)-2,8-diazaspiro[4.5]decane-3-carboxylic acid] | *** (*** refers to P<0.005) |  |
| 50 to 300 | Nc1nc(O[C@H](c2ccc(Cl)cc2-c2ccc(Cl)s2)C(F)(F)F)cc(N2CCC3(CC2)CN[C@H](C(=O)O)C3)n1 [Example 34s, (S)-8-(2-amino-6-((R)-1-(4-chloro-2-(5-chlorothiophen-2-yl)phenyl)-2,2,2-trifluoroethoxy)pyrimidin-4-yl)-2,8-diazaspiro[4.5]decane-3-carboxylic acid] | ** (** refers to P<0.01) |  |

— patent US11759462B2, “Spirocyclic compounds as tryptophan hydroxylase inhibitors” (priority 2013, dated 2023)
